In US5840684A, “Glycopeptide antibiotic derivatives” (Eli Lilly and Company, priority 1995, dated 1998):
Converted amounts (≈) assume the structure as drawn.

What was measured:
Entercoccus faecium 180 = assay: broth micro-dilution MIC; type: cell-based; settings: Entercoccus faecium 180
Method: (§1) The formula I compounds have in vitro and in vivo activity against Gram-positive pathogenic bacteria. The MIC's were determined using a standard broth micro-dilution assay.

[1] = system: Enterococcus gallinarum 245; assay: broth micro-dilution MIC; type: cell-based; settings: Enterococcus gallinarum 245
Method: as §1

Entercoccus faecium 2041 = assay: broth micro-dilution MIC; type: cell-based; settings: Entercoccus faecium 2041
Method: as §1

[2] = system: Streptococcus pneumoniae P1; assay: broth micro-dilution MIC; type: cell-based
Method: as §1

[3] = system: Staphylococcus haemolyticus 105; assay: broth micro-dilution MIC; type: cell-based
Method: as §1

[4] = system: Staphylococcus haemolyticus 415; assay: broth micro-dilution MIC; type: cell-based
Method: as §1

[5] = system: Haemophilus influenzae RD; assay: broth micro-dilution MIC; type: cell-based; settings: Haemophilus influenzae RD
Method: as §1

[6] = system: Staphylococcus aureus SA1199B; type: cell-based
Method: (§2) The MIC's were determined using a standard broth micro-dilution assay.

[7] = system: Staphylococcus aureus S13E; type: cell-based
Method: as §2

[8] = system: vancomycin-susceptible enterococci; assay: broth micro-dilution, mean geometric MIC; type: cell-based, Enterococcus faecium and Enterococcus faecalis; settings: enterococci, 24-hour incubation
[9] = system: Staphylococcus aureus X778; assay: broth micro-dilution MIC; type: cell-based
Method: as §2

[10] = system: Staphylococcus aureus SA1199A; assay: broth micro-dilution MIC; type: cell-based
Method: as §2

[11] = system: Staphylococcus aureus 491; assay: broth micro-dilution MIC; type: cell-based
Method: as §2

[12] = system: Entercoccus faecium 180-1; assay: broth micro-dilution MIC; type: cell-based
Method: as §2

[13] = system: Staphylococcus aureus 489; assay: broth micro-dilution MIC; type: cell-based
Method: as §2

[14] = system: Staphylococcus aureus SA1199; assay: broth micro-dilution MIC; type: cell-based
Method: as §2

[15] = system: Streptococcus pyogenes C203; assay: broth micro-dilution MIC; type: cell-based
Method: as §2

[16] = system: Staphylococcus aureus X400; assay: broth micro-dilution MIC; type: cell-based
Method: as §2

Entercoccus faecium 276 = assay: broth micro-dilution MIC; type: cell-based
Method: as §2

[17] = system: vancomycin-resistant enterococci; assay: broth micro-dilution, mean geometric MIC; type: cell-based, Enterococcus faecium and Enterococcus faecalis; settings: enterococci, 24-hour incubation
[18] = system: Staphylococcus epidermidis 270; assay: broth micro-dilution MIC; type: cell-based
Method: as §1

[19] = system: Staphylococcus aureus 446; assay: broth micro-dilution MIC; type: cell-based
Method: as §2

[20] = system: Staphylococcus aureus 447; assay: broth micro-dilution MIC; type: cell-based
Method: as §2

SMILES	MIC (Entercoccus faecium 180)	MIC [1]	MIC (Entercoccus faecium 2041)	MIC [2]	MIC [3]	MIC [4]	MIC [5]	MIC [6]	MIC [7]	mean geometric MIC, Vancomycin Sensitive Strains [8]	MIC [9]	MIC [10]	MIC [11]	MIC [12]	MIC [13]	MIC [14]	MIC [15]	MIC [16]	MIC (Entercoccus faecium 276)	mean geometric MIC, Vancomycin Resistant Strains [17]	also measured
CNC(CC(C)C)C(=O)NC1C(=O)NC(CC(N)=O)C(=O)NC2C(=O)NC3C(=O)NC(C(=O)NC(C(=O)O)c4cc(O)cc(O)c4-c4cc3ccc4O)C(OC3CC(C)(N)C(O)C(C)O3)c3ccc(c(Cl)c3)Oc3cc2cc(c3OC2OC(CO)C(O)C(O)C2OC2CC(C)(NCc3ccc(-c4ccc(C#N)cc4)cc3)C(O)C(C)O2)Oc2ccc(cc2Cl)C1O (stereo not drawn) [Compound 231]	≤ 0.06 µg/mL	0.5 µg/mL (≈ 0.28 µM)	≤ 0.06 µg/mL	≤ 0.06 µg/mL	≤ 0.06 µg/mL	0.5 µg/mL (≈ 0.28 µM)	32 µg/mL (≈ 17.9 µM)	≤ 0.06 µg/mL	≤ 0.06 µg/mL	0.11 µg/mL	≤ 0.06 µg/mL	≤ 0.06 µg/mL	≤ 0.06 µg/mL	≤ 0.06 µg/mL	≤ 0.06 µg/mL	≤ 0.06 µg/mL	≤ 0.06 µg/mL	≤ 0.06 µg/mL	≤ 0.06 µg/mL	1.7 µg/mL	–
CNC(CC(C)C)C(=O)NC1C(=O)NC(CC(N)=O)C(=O)NC2C(=O)NC3C(=O)NC(C(=O)NC(C(=O)O)c4cc(O)cc(O)c4-c4cc3ccc4O)C(OC3CC(C)(N)C(O)C(C)O3)c3ccc(c(Cl)c3)Oc3cc2cc(c3OC2OC(CO)C(O)C(O)C2OC2CC(C)(NCCCCCCCCOc3ccc(-c4ccccc4)cc3)C(O)C(C)O2)Oc2ccc(cc2Cl)C1O (stereo not drawn) [Compound 201]	0.5 µg/mL (≈ 0.267 µM)	8 µg/mL (≈ 4.27 µM)	1 µg/mL (≈ 0.534 µM)	≤ 0.06 µg/mL	8 µg/mL (≈ 4.27 µM)	8 µg/mL (≈ 4.27 µM)	32 µg/mL (≈ 17.1 µM)	–	8 µg/mL (≈ 4.27 µM)	0.44 µg/mL	4 µg/mL (≈ 2.14 µM)	2 µg/mL (≈ 1.07 µM)	4 µg/mL (≈ 2.14 µM)	0.5 µg/mL (≈ 0.267 µM)	8 µg/mL (≈ 4.27 µM)	8 µg/mL (≈ 4.27 µM)	≤ 0.06 µg/mL	4 µg/mL (≈ 2.14 µM)	4 µg/mL (≈ 2.14 µM)	1.2 µg/mL	MIC [18]: 4 µg/mL (≈ 2.14 µM); MIC [19]: 4 µg/mL (≈ 2.14 µM)
CNC(CC(C)C)C(=O)NC1C(=O)NC(CC(N)=O)C(=O)NC2C(=O)NC3C(=O)NC(C(=O)NC(C(=O)O)c4cc(O)cc(O)c4-c4cc3ccc4O)C(OC3CC(C)(N)C(O)C(C)O3)c3ccc(c(Cl)c3)Oc3cc2cc(c3OC2OC(CO)C(O)C(O)C2OC2CC(C)(NCCCCC3CCCCC3)C(O)C(C)O2)Oc2ccc(cc2Cl)C1O (stereo not drawn) [Compound 205]	0.5 µg/mL (≈ 0.289 µM)	1 µg/mL (≈ 0.578 µM)	0.25 µg/mL (≈ 0.144 µM)	≤ 0.06 µg/mL	1 µg/mL (≈ 0.578 µM)	1 µg/mL (≈ 0.578 µM)	16 µg/mL (≈ 9.24 µM)	0.5 µg/mL (≈ 0.289 µM)	0.5 µg/mL (≈ 0.289 µM)	0.036 µg/mL	0.5 µg/mL (≈ 0.289 µM)	≤ 0.06 µg/mL	0.5 µg/mL (≈ 0.289 µM)	≤ 0.06 µg/mL	0.5 µg/mL (≈ 0.289 µM)	1 µg/mL (≈ 0.578 µM)	≤ 0.06 µg/mL	0.5 µg/mL (≈ 0.289 µM)	0.5 µg/mL (≈ 0.289 µM)	1 µg/mL	MIC [19]: 2 µg/mL (≈ 1.16 µM); MIC [20]: 0.5 µg/mL (≈ 0.289 µM)
